System: NOMO1
Assay: cell viability relative to DMSO control; higher = less cytotoxic
Conditions: 48 h
Method in brief: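 Library compounds in DMSO were pin-dosed into 1536-well plates (5 μl) holding NOMO1 or SEM (500 cells/well) or P12-Ichikawa (1000 cells/well) leukemia cells, across an 11-point threefold series of 47 μM to 0.79 nM. Each cell line had been adapted for at least four passages in each medium. CellTiter-Glo One luminescence was read after 48 h at 37°C. Viability is the per-plate percentage relative to DMSO wells, with cell-free wells as background.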

[1] = HPLM + 10% dialyzed FBS, 0.000781 µM
[2] = HPLM + 10% dialyzed FBS, 0.00234 µM
[3] = HPLM + 10% dialyzed FBS, 0.00702 µM
[4] = HPLM + 10% dialyzed FBS, 0.0211 µM
[5] = HPLM + 10% dialyzed FBS, 0.0632 µM
[6] = HPLM + 10% dialyzed FBS, 0.19 µM
[7] = HPLM + 10% dialyzed FBS, 0.569 µM
[8] = HPLM + 10% dialyzed FBS, 1.71 µM
[9] = HPLM + 10% dialyzed FBS, 5.12 µM
[10] = HPLM + 10% dialyzed FBS, 15.4 µM
[11] = HPLM + 10% dialyzed FBS, 46.1 µM
[12] = RPMI 5 mM glucose + 10% FBS, 0.000781 µM
[13] = RPMI 5 mM glucose + 10% FBS, 0.00234 µM
[14] = RPMI 5 mM glucose + 10% FBS, 0.00702 µM
[15] = RPMI 5 mM glucose + 10% FBS, 0.0211 µM
[16] = RPMI 5 mM glucose + 10% FBS, 0.0632 µM
[17] = RPMI 5 mM glucose + 10% FBS, 0.19 µM
[18] = RPMI 5 mM glucose + 10% FBS, 0.569 µM
[19] = RPMI 5 mM glucose + 10% FBS, 1.71 µM
[20] = RPMI 5 mM glucose + 10% FBS, 5.12 µM
[21] = RPMI 5 mM glucose + 10% FBS, 15.4 µM
[22] = RPMI 5 mM glucose + 10% FBS, 46.1 µM
[23] = RPMI 5 mM glucose + 10% dialyzed FBS, 0.000781 µM
[24] = RPMI 5 mM glucose + 10% dialyzed FBS, 0.00234 µM
[25] = RPMI 5 mM glucose + 10% dialyzed FBS, 0.00702 µM
[26] = RPMI 5 mM glucose + 10% dialyzed FBS, 0.0211 µM
[27] = RPMI 5 mM glucose + 10% dialyzed FBS, 0.0632 µM
[28] = RPMI 5 mM glucose + 10% dialyzed FBS, 0.19 µM
[29] = RPMI 5 mM glucose + 10% dialyzed FBS, 0.569 µM
[30] = RPMI 5 mM glucose + 10% dialyzed FBS, 1.71 µM
[31] = RPMI 5 mM glucose + 10% dialyzed FBS, 5.12 µM
[32] = RPMI 5 mM glucose + 10% dialyzed FBS, 15.4 µM
[33] = RPMI 5 mM glucose + 10% dialyzed FBS, 46.1 µM

| SMILES | cell viability [1] [%] | cell viability [2] [%] | cell viability [3] [%] | cell viability [4] [%] | cell viability [5] [%] | cell viability [6] [%] | cell viability [7] [%] | cell viability [8] [%] | cell viability [9] [%] | cell viability [10] [%] | cell viability [11] [%] | cell viability [12] [%] | cell viability [13] [%] | cell viability [14] [%] | cell viability [15] [%] | cell viability [16] [%] | cell viability [17] [%] | cell viability [18] [%] | cell viability [19] [%] | cell viability [20] [%] | cell viability [21] [%] | cell viability [22] [%] | cell viability [23] [%] | cell viability [24] [%] | cell viability [25] [%] | cell viability [26] [%] | cell viability [27] [%] | cell viability [28] [%] | cell viability [29] [%] | cell viability [30] [%] | cell viability [31] [%] | cell viability [32] [%] | cell viability [33] [%] |
| --- | --- | --- | --- | --- | --- | --- | --- | --- | --- | --- | --- | --- | --- | --- | --- | --- | --- | --- | --- | --- | --- | --- | --- | --- | --- | --- | --- | --- | --- | --- | --- | --- | --- |
| CC[C@H](NC(C)C)[C@H](O)c1ccc(O)c2[nH]c(=O)ccc12 | 113 | 103 | 108 | 97.6 | 108 | 113 | 124 | 107 | 108 | 96.8 | 104 | 91.2 | 95.8 | 88.7 | 95.7 | 84.6 | 107 | 101 | 94.5 | 97 | 84.1 | 90.6 | 84.7 | 109 | 104 | 94.4 | 102 | 107 | 96.9 | 95.3 | 94.6 | 87 | 91.2 |
| CCOc1cc(/C=C2/C(=O)N(c3ccccc3)N=C2C)cc(Cl)c1OCC(=O)OC | 86.1 | 92.5 | 93 | 93.5 | 84.4 | 95.5 | 101 | 96.3 | 87.5 | 77.6 | 85.1 | 81.8 | 80.8 | 82.1 | 89.2 | 93.6 | 89.5 | 93.3 | 88.4 | 78.4 | 91.8 | 83 | 89.2 | 88.5 | 94.9 | 85.5 | 92.6 | 102 | 85 | 82.8 | 86.7 | 84.6 | 87.5 |
